Results on three compounds are retold here after patent US12036228B2, “Treatment of seizure disorders” (Shackelford Pharma Inc., priority 2022, dated 2024).

Data set [1] concerns GTC seizures in human patient. The data set is described as follows: Example 6 human patient, GTC and CPS seizures after temporal lobectomy. Format: in vivo. Conditions: re-introduction of lamotrigine (225 mg twice a day). How it is done: A patient with a longstanding history of GTC and CPS seizures ([…]) was evaluated for surgical intervention and underwent a right temporal lobectomy in 2013. No seizure activity was experienced for 9 months; thereafter, seizures recurred with GTC seizures occurring one time per week requiring hospitalization.
The patient was first evaluated for cannabinoid treatment on Feb. 11, 2016, […] with their parents (caregivers). They were still experiencing approximately 1 GTC seizure per month at that time. On physical examination, their neurological system was grossly within normal limits. The patient's mentation was evaluated as slow, but they were responsive and fully oriented. At the time of this first visit, they had no previous exposure to cannabinoid treatment.

In data set [2] the test system is seizures in human patient. The data set is described as follows: Example 3 human patient, GTC and complex partial seizures. Type of data set: in vivo. The text has this: A patient first started having GTC and complex partial (CP) seizures. […] The patient was referred for evaluation for initiation of cannabinoid/THC treatment in March 2014.
Data set [3] relates to GTC seizures in human patients. The data set is described as follows: THC treatment of several human patients with GTC seizures (responder rate, one-year remission rate, adverse effects). Type of data set: in vivo. From the text: Several human patients commenced treatment with THC after a first visit. More details about the treatment are provided below. The group included 82 total adult patients and 12 total pediatric patients. Of those 94 patients, 34 adult patients and 10 pediatric patients had experienced at least one GTC seizure in the year preceding the first visit. At the time of first visit, 14 of the 34 adult patients and 8 of the 10 pediatric patients had never taken THC. At the time of first visit, five of the 34 adult patients and two of the 10 pediatric patients were consistently/regularly taking THC. At the time of first visit, 15 of the 34 adult patients and none of the 10 pediatric patients were inconsistently/irregularly taking THC or had taken THC at some point in the past and were no longer taking THC.
At the time of first visit, 16 of the 34 adult patients had treatment resistant epilepsy, which means the patients had persistent GTC seizures despite taking two different anti-seizure medications at, or prior to, the first visit. At the time of first visit, all 10 of the pediatric patients had treatment resistant epilepsy.
The first visit means the date when the patient first saw the doctor for evaluation for THC treatment for GTC seizures. Responder rates means the percentage of patients that had at least a 50% reduction in GTC seizure frequency over a one-year treatment period with THC. One-year remission rate means the percentage of patients that experienced no GTC seizures in a one-year period after commencing THC treatment.
All of the 34 adult patients and 10 pediatric patients were taking other anti-seizure medications or had other anti-seizure treatment at the time of the first visit. […] Those anti-seizure medications and other anti-seizure treatments included: lamotrigine, topiramate, topiramate XR, vagus nerve stimulation, phenytoin, valproic acid, zonisamide, benzodiazepine, surgery, levetiracetam, carbamazepine, oxcarbazepine, lacosamide, perampanel, clonazepam, phenobarbial, pregabalin, gabapentin, rufinamide, CBD (e.g., Epidiolex), clobazam, and felbamate. Also, all patients who were using THC oral dosages were using products that included no CBD or products that included CBD in doses well below the therapeutic dose for Epidiolex.
THC Treatment for the 82 adult patients varied. Many of the patients smoked marijuana, so the dosage and/or timing of the dosage was unknown. Because CBD is delivered at sub-therapeutic levels when marijuana is smoked, it is acceptable to attribute any therapeutic effect to THC. The label for the CBD drug Epidiolex includes dosages starting at 5 mg/kg daily for all indications, and increasing to maintenance doses of 10 mg/kg or 20 mg/kg for Lennox-Gestault Syndrome and Dravet Syndrome, and increasing to maintenance doses of 25 mg/kg per day for Tuberous Sclerosis Complex. When 1 gram of cannabis is smoked, it delivers CBD to the lungs in doses well below the therapeutic dose levels prescribed for Epidiolex. Some other patients took unknown dosages of THC orally.

Data set [4] deals with seizures / EEG abnormalities in human patient. The data set is described as follows: Example 8 pediatric patient with atonic seizures, myoclonic seizures and Doose syndrome (24 hour EEG, seizures). Type of data set: in vivo. The note with it: CBD transdermal patches. How it is done:
They had continued to experience several seizures per day of all types despite multiple combination regimens of prescription anti-seizure medications and a trial of THC-A transdermal patch and CBD (Charlotte's Web) oral tincture and CBD transdermal patches up until the day they were first evaluated for cannabinoid treatment (age 4.5 on Mar. 8, 2016). […] They were then prescribed 1 mg oral THC tincture three times per day. On Mar. 8, 2018, the patient returned for follow-up where it was learned that all cannabinoids had been discontinued. […] The THC-A transdermal patch was restarted at 1.875 mg/day with a reduction in EEG abnormalities to 400/24 hours. Oral THC 2.5 mg BID was then restarted with a further reduction in EEG abnormalities to 20/24 hours. […] Due to the significant reduction in brain pre-seizure activity after restarting THC and concerns that there are effective dosage variations among transdermal products, the patient was then prescribed oral THC 2.5 mg BID which they continue to take.

Data set [5] deals with DS, LGS, TSC patients. In words: EPIDIOLEX pediatric randomized controlled clinical trials (RCTs). Format: in vivo, human. Conditions: Ped. RCTs; expected 5%.
Data set [6] deals with DS, LGS, TSC patients. Conditions: Ped. RCTs, cited from earlier work.
For data set [7], the system named is Treatment Resistant Epilepsy patients. The data set is described as follows: EPIDIOLEX expanded access program (EAP), adults and pediatrics. Conditions: expected 5%. Type of data set: in vivo, human.
Data set [8] has the same test system. Conditions: EAP, cited from earlier work.

Consider `Nc1nnc(-c2cccc(Cl)c2Cl)c(N)n1` [lamotrigine], for which, in data set [1], the seizure frequency result is recorded as “decreased to 1 GTC seizure about every month”. Also, the effect on seizures entry in data set [2] (lamotrigine 60 mg twice daily) was “still having seizures”.

With `C=C(C)[C@@H]1CCC(C)=C[C@H]1c1c(O)cc(CCCCC)cc1O` [CBD, cannabidiol], the “seizure outcome, individual pediatric patient” value in data set [3] (CBD-only containing product, 134 mg CBD per day and no THC) is given as “frequent “violent” GTC seizures”. The “seizure frequency and severity, individual pediatric patient” value in data set [3] (switched to 30 mg CBD only (2015)) is “seizure frequency and severity increased”. Besides, the effect on seizures result in data set [2] (CBD patches and an oral CBD spray) is “no improvement in their seizures”; in data set [2] (oral CBD 0.48 mg/kg, or 50 mg per day, along with topiramate), “no improvement”; in data set [4] it was “worsened seizures in a dose-related fashion”.

As to `C=C(C)[C@@H]1CCC(C)=C[C@H]1c1c(O)cc(CCCCC)cc1O` [EPIDIOLEX ®], the “Increase in 1 YR Seizure Remission Rate over expected” value was roughly 1.4X in the data set on DS, LGS, TSC patients [5] and roughly 2.2X in data set [7]. The “1 YR Seizure Remission Rate” value in the data set on DS, LGS, TSC patients [6] (@14 wks) is given as 6-7% @14 wks; in data set [8] (@48 wks) it was 11% @48 wks. Besides, the “Responder Rate” value in the data set with DS, LGS, TSC patients [6] (DS, LGS, TSC, @ 14 wks) is given as roughly 45% @ 14; in data set [8] (TRE, @48 wks), 53% @48 wks. The “Adverse Events” value is “Up to 12%” in the data set on DS, LGS, TSC patients [6] and 7% in data set [8].
